# Test results published in PubChem BioAssay AID2060888 (Molecular Pharmacology Branch, DTP, NCI, 2025).
# System: 695427-040-R-J1-PDC complex spheroid viability
# Assay: Anticancer human tumor 695427-040-R-J1-PDC patient-derived colon adenocarcinoma cell line growth inhibition [RAS]
# Details: for IC50: curve of first compound; for viability, T/C: stronger effect = lower value
# Description: RAS pathway inhibitors in Combinations in Complex Spheroids
# A high-throughput screen of multi-cell type tumor spheroids was designed to identify active combinations of RAS pathway inhibitors and targeted small molecules. Complex spheroids include a stromal component modeled by human endothelial cells (HUVEC) and fibroblasts modeled by human mesenchymal stem cells (MSCs). The concentration ranges selected for each drug and investigational agent were based upon clinically achievable concentrations if the clinical Cmax of the agent was known.
# Compounds. The drugs and investigational agents: abemaciclib (NSC768073), cobimetinib (NSC768068), divarasib (GDC6063, NSC841802), docetaxel (NSC628503), GDC-1971 (RLY-1971, NSC841576), gemcitabine (NSC613327), inavolisib (NSC800729), ipatasertib (NSC767898), KB-0742 (NSC834161), MRTX-1133 (NSC836407), osimertinib (NSC779217), RMC-4630 (NSC839698), RMC-6236 (NSC851965), RMC-6291 (NSC852671), Ro-3306 (NSC812927), sapanisertib (NSC764658), SN-38 (NSC673596), staurosporine (NSC755774), SY5609 (NSC837396), and tovorafenib (DAY101, NSC766906), were obtained from the National Cancer Institute (NCI) Developmental Therapeutics Program Chemical Repository. The FDA-approved anticancer drug set is available from the NCI Developmental Therapeutics Program. […] The stock solutions were prepared in dimethyl sulfoxide (DMSO, Sigma-Aldrich, St. Louis, MO, cat. D2650) at 800-fold the tested concentration and stored at -70 degrees C prior to their use. All drugs and investigational agents were tested over a range starting from a high concentration at or near the clinical Cmax and decreasing in half-log increments. If the clinical Cmax for an agent had not been determined, the highest concentration tested was 10 microM.
# Cell Culture. All cells were maintained in an incubator at 37 degrees C and 5% CO2 with 95% humidity. The PDC lines were cultured according to standard operating procedures established by the NCI PDMR. All PDCs were thawed and cultured in Matrigel-coated flasks prepared with a working solution of 1X Ham's F-12 nutrient mix, without supplementation (Invitrogen, Waltham, MA, cat. 11765054), 100 U/mL penicillin-streptomycin (Invitrogen, cat. 15140122), and 2.5% Matrigel (Corning Inc., Corning, NY, cat. 354248) for the first three passages. The 362531-283-R-J2-PDC and 782815-120-R-J1-PDC lines were cultured in 6C/Colon 1B media, which includes advanced DMEM/F-12 (Thermo Fisher Scientific, cat. 12634028), 10 mM HEPES (Thermo Fisher Scientific, cat. 15630080), 1X GlutaMAX supplement (Thermo Fisher Scientific, cat. 35050061), 0.1 mg/mL primocin (InvivoGen, San Diego, CA, cat. ant-pm-2), 10% defined fetal bovine serum, heat inactivated (HyClone Laboratories Inc., Logan, UT, cat. SH30070.03HI), 50% L-WRN conditioned media (ATCC, cat. CRL-3276), 1.25 mM N-Acetyl-L-cysteine (Sigma-Aldrich, cat. A9165), 10 mM nicotinamide (Sigma-Aldrich, cat. N0636), 1X B-27 supplement (Thermo Fisher Scientific, cat. 17504044), 1X N-2 supplement (Thermo Fisher Scientific, cat. 17502048), 50 ng/mL human EGF (Thermo Fisher Scientific, cat. PHG0311), and 10 microM Y-27632 dihydrochloride (Tocris Bioscience, cat. 1254). The K12877-001-R-J1-PDC line was cultured in 6I media, which includes all 6C/Colon 1B media plus 10 ng/mL human FGF-10 (PeproTech, cat. 100-26), 1 ng/mL human FGF-2 (PeproTech, cat. 100-18B), 1 µM prostaglandin E2 (Tocris Bioscience, cat. 2296), […] hydrocortisone (Sigma-Aldrich, cat. H4001), and […] bovine insulin (Sigma-Aldrich, cat. I6634). The K86415-001-R-J1-PDC line was cultured in 6D media, which includes all 6C/Colon 1B media components minus the L-WRN conditioned media. The 485176-168-R4-J1-PDC was cultured in PANC media, which includes all 6C/Colon 1B media plus 100 ng/mL human FGF-10 (PeproTech, cat. 100-26), 500 nM SB-431542 (Selleckchem, cat. S1067), and 10 nM gastrin (Tocris Bioscience, cat. 3006). […]
# [1] = second compound 0.000949 µM, first compound 0.000949 µM
# [2] = second compound 0.000949 µM, first compound 0.003 µM
# [3] = second compound 0.000949 µM, first compound 0.00949 µM
# [4] = second compound 0.000949 µM, first compound 0.03 µM
# [5] = second compound 0.000949 µM, first compound 0.0949 µM
# [6] = second compound 0.000949 µM, first compound 0.3 µM
# [7] = second compound 0.003 µM, first compound 0.000949 µM
# [8] = second compound 0.003 µM, first compound 0.003 µM
# [9] = second compound 0.003 µM, first compound 0.00949 µM
# [10] = second compound 0.003 µM, first compound 0.03 µM
# [11] = second compound 0.003 µM, first compound 0.0949 µM
# [12] = second compound 0.003 µM, first compound 0.3 µM
# [13] = second compound 0.00949 µM, first compound 0.000949 µM
# [14] = second compound 0.00949 µM, first compound 0.003 µM
# [15] = second compound 0.00949 µM, first compound 0.00949 µM
# [16] = second compound 0.00949 µM, first compound 0.03 µM
# [17] = second compound 0.00949 µM, first compound 0.0949 µM
# [18] = second compound 0.00949 µM, first compound 0.3 µM
# [19] = second compound 0.03 µM, first compound 0.000949 µM
# [20] = second compound 0.03 µM, first compound 0.003 µM
# [21] = second compound 0.03 µM, first compound 0.00949 µM
# [22] = second compound 0.03 µM, first compound 0.03 µM
# [23] = second compound 0.03 µM, first compound 0.0949 µM
# [24] = second compound 0.03 µM, first compound 0.3 µM
# [25] = second compound 0.0949 µM, first compound 0.000949 µM
# [26] = second compound 0.0949 µM, first compound 0.003 µM
# [27] = second compound 0.0949 µM, first compound 0.00949 µM
# [28] = second compound 0.0949 µM, first compound 0.03 µM
# [29] = second compound 0.0949 µM, first compound 0.0949 µM
# [30] = second compound 0.0949 µM, first compound 0.3 µM
# [31] = second compound 0.3 µM, first compound 0.000949 µM
# [32] = second compound 0.3 µM, first compound 0.003 µM
# [33] = second compound 0.3 µM, first compound 0.00949 µM
# [34] = second compound 0.3 µM, first compound 0.03 µM
# [35] = second compound 0.3 µM, first compound 0.0949 µM
# [36] = second compound 0.3 µM, first compound 0.3 µM
# 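Further: viability read after seven days of drug exposure.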
# 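Wherever viability, T/C is given: 100% = DMSO vehicle control viability.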
compound,measurement,setting,value
CC1(C)CCC(Nc2ncc(C(F)(F)F)c(-c3c[nH]c4c(P(C)(C)=O)c(C#N)ccc34)n2)CN1 (centres undefined) + CCn1c(-c2cccnc2C(C)OC)c2c3cc(ccc31)N1CCOC(CC(NC(=O)C(C(C)C)N(C)C(=O)C3(F)CCN(C(=O)C#CC(C)(C)N(C)C)CC3)C(=O)N3CCCC(N3)C(=O)OCC(C)(C)C2)C1,IC50,second compound 0.000949 µM,> 300 nM
same,IC50,second compound 0.003 µM,> 300 nM
same,IC50,second compound 0.00949 µM,> 300 nM
same,IC50,second compound 0.03 µM,> 300 nM
same,IC50,second compound 0.0949 µM,> 300 nM
same,IC50,second compound 0.3 µM,> 300 nM
same,"viability, T/C",[1],85%
same,"viability, T/C",[2],116%
same,"viability, T/C",[3],95.5%
same,"viability, T/C",[4],100%
same,"viability, T/C",[5],85.6%
same,"viability, T/C",[6],90.6%
same,"viability, T/C",[7],104%
same,"viability, T/C",[8],105%
same,"viability, T/C",[9],81%
same,"viability, T/C",[10],103%
same,"viability, T/C",[11],86.9%
same,"viability, T/C",[12],55.1%
same,"viability, T/C",[13],108%
same,"viability, T/C",[14],104%
same,"viability, T/C",[15],98.3%
same,"viability, T/C",[16],113%
same,"viability, T/C",[17],103%
same,"viability, T/C",[18],65.4%
same,"viability, T/C",[19],101%
same,"viability, T/C",[20],80.8%
same,"viability, T/C",[21],89.9%
same,"viability, T/C",[22],90.5%
same,"viability, T/C",[23],97.5%
same,"viability, T/C",[24],90.1%
same,"viability, T/C",[25],105%
same,"viability, T/C",[26],78.2%
same,"viability, T/C",[27],107%
same,"viability, T/C",[28],98%
same,"viability, T/C",[29],93.3%
same,"viability, T/C",[30],80.2%
same,"viability, T/C",[31],75.7%
same,"viability, T/C",[32],93.8%
same,"viability, T/C",[33],84.3%
same,"viability, T/C",[34],92.1%
same,"viability, T/C",[35],85.7%
same,"viability, T/C",[36],78.1%
CCc1c2c(nc3ccc(O)cc13)-c1cc3c(c(=O)n1C2)COC(=O)[C@]3(O)CC + CCn1c(-c2cc(N3CCN(C)CC3)cnc2C(C)OC)c2c3cc(ccc31)-c1csc(n1)CC(NC(=O)C1CC1C)C(=O)N1CCCC(N1)C(=O)OCC(C)(C)C2,IC50,second compound 0.000949 µM,107 nM
same,IC50,second compound 0.003 µM,73.2 nM
same,IC50,second compound 0.00949 µM,56.8 nM
same,IC50,second compound 0.03 µM,7.69 nM
same,IC50,second compound 0.0949 µM,< 0.949 nM
same,IC50,second compound 0.3 µM,< 0.949 nM
same,"viability, T/C",[1],88.8%
same,"viability, T/C",[2],87%
same,"viability, T/C",[3],75.6%
same,"viability, T/C",[4],61.8%
same,"viability, T/C",[5],55.4%
same,"viability, T/C",[6],33.7%
same,"viability, T/C",[7],103%
same,"viability, T/C",[8],86.1%
same,"viability, T/C",[9],66%
same,"viability, T/C",[10],63.6%
same,"viability, T/C",[11],48%
same,"viability, T/C",[12],36.3%
same,"viability, T/C",[13],82.3%
same,"viability, T/C",[14],64%
same,"viability, T/C",[15],65%
same,"viability, T/C",[16],57.8%
same,"viability, T/C",[17],50%
same,"viability, T/C",[18],26.6%
same,"viability, T/C",[19],59.2%
same,"viability, T/C",[20],51.6%
same,"viability, T/C",[21],55.3%
same,"viability, T/C",[22],35.3%
same,"viability, T/C",[23],41.6%
same,"viability, T/C",[24],27.9%
same,"viability, T/C",[25],45.2%
same,"viability, T/C",[26],41.7%
same,"viability, T/C",[27],46.7%
same,"viability, T/C",[28],31.8%
same,"viability, T/C",[29],30.7%
same,"viability, T/C",[30],20.5%
same,"viability, T/C",[31],38.1%
same,"viability, T/C",[32],37.6%
same,"viability, T/C",[33],28.2%
same,"viability, T/C",[34],30.8%
same,"viability, T/C",[35],23.8%
same,"viability, T/C",[36],16.9%
